Patent US6548550B1, “Pharmaceutical compositions containing N-palmitoylethanolamide and use thereof in the veterinary field” (Innovet Italia S.r.l., priority 2002, dated 2003)
Like-named read-outs stand apart in the source and are kept apart here.

Legend:
[1] = Particle size analysis of micronized PEA (Mastersizer); assay type: physicochemical
Method: The micronization of PEA and its co-micronization with excipients were performed with compressed-air turbine micronizing apparatus. This apparatus is known and is not therefore described in greater detail. The product obtained was subjected to analysis of the particles with Mastersizer, μ version apparatus from Malvern Instruments Co. UK.

[2] = system: eosinophilic skin condition in cats; conditions: for SIGNS plaque-granuloma-miliary scabs % improved / SIGNS plaque-granuloma-miliary scabs % unchanged / SIGNS plaque-granuloma-miliary scabs % worsened / SYMPTOMS pruritis-erythema-alopecia % improved / SYMPTOMS pruritis-erythema-alopecia % unchanged / SYMPTOMS pruritis-erythema-alopecia % worsened: cats
Method: Included in the investigation were 15 cats of European race with short hair, of which 9 were female and 6 were male, with ages of between 7 and 123 months. […] A numerical evaluation relating to the intensity and location of the signs and symptoms was assigned to each individual animal in accordance with the P.A.S.I. (psoriasis area severity index) “score” (Marks R. et al., 1989, Arch. Dermatol., 125:235-240). The improvements in the clinical signs and in the associated lesions were evaluated on the 15th and 30th days of treatment. The treatment consisted of a preparation in accordance with Example 3 of the pharmaceutical preparations given below, containing 120 mg of micronized N-palmitoylethanolamide. The active ingredient was administered in a proportion of 10 mg/kg/die for 30 days.

Row | SMILES | quantity % of particles <6μ ([1]; particle size <6μ) [%] | quantity % of particles <10μ ([1]; particle size <10μ) [% approx.] | quantity % of particles >14μ ([1]; particle size >14μ) | side effects compared with cortisones ([2]; in vivo) | SIGNS plaque-granuloma-miliary scabs % improved ([2]; T15 (15th day of treatment)) [%] | SIGNS plaque-granuloma-miliary scabs % unchanged ([2]; T15 (15th day of treatment)) [%] | SIGNS plaque-granuloma-miliary scabs % worsened ([2]; T15 (15th day of treatment)) [%] | SYMPTOMS pruritis-erythema-alopecia % improved ([2]; T15 (15th day of treatment)) [%] | SYMPTOMS pruritis-erythema-alopecia % unchanged ([2]; T15 (15th day of treatment)) [%] | SYMPTOMS pruritis-erythema-alopecia % worsened ([2]; T15 (15th day of treatment)) [%] | SIGNS plaque-granuloma-miliary scabs % improved ([2]; T30 (30th day of treatment)) [%] | SIGNS plaque-granuloma-miliary scabs % unchanged ([2]; T30 (30th day of treatment)) [%] | SIGNS plaque-granuloma-miliary scabs % worsened ([2]; T30 (30th day of treatment)) [%] | SYMPTOMS pruritis-erythema-alopecia % improved ([2]; T30 (30th day of treatment)) [%] | SYMPTOMS pruritis-erythema-alopecia % unchanged ([2]; T30 (30th day of treatment)) [%] | SYMPTOMS pruritis-erythema-alopecia % worsened ([2]; T30 (30th day of treatment)) [%]
1 | CCCCCCCCCCCCCCCC(=O)NCCO [PEA, N-palmitoylethanolamide] | 80 | ~96 | traces | does not have the serious side effects typical of these drugs |  |  |  |  |  |  |  |  |  |  |  | 
2 | CCCCCCCCCCCCCCCC(=O)NCCO [non-micronized PEA, N-palmitoylethanolamide] |  |  |  |  | 14.6 | 85.4 | 0 | 8.2 | 91.8 | 0 | 51.4 | 48.6 | 0 | 52 | 48 | 0
